# The source made the active and inactive calls.
# Columns and labels:
# [1] = Trypanosoma cruzi growth suppression in host cells – NIH3T3 host cells, beta-gal luminescence, confirmation (AID 2044); format: functional, cell-based;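 note: intracellular parasites grown in NIH/3T3 mouse fibroblasts as host cells; luminescent beta-galactosidase reporter signal from transgenic T. cruzi replicating inside host cells; inhibitors lower the luminescence signal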
# [2] = NIH3T3 cell viability loss – ATP luminescence, mouse fibroblasts, counter-screen, dose response (AID 2010); format: functional, cell-based;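 note: cells exposed to compound for about 90 hours before reading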
# Ephrin type-A receptor 4 = Ephrin type-A receptor 4 (Mus musculus, UniProt Q03137); test: EphA4 ligand-binding antagonists – biochemical, colorimetric, mouse EphA4, primary screen (AID 689); format: functional
# Sequence of Ephrin type-A receptor 4 (Q03137 whole entry): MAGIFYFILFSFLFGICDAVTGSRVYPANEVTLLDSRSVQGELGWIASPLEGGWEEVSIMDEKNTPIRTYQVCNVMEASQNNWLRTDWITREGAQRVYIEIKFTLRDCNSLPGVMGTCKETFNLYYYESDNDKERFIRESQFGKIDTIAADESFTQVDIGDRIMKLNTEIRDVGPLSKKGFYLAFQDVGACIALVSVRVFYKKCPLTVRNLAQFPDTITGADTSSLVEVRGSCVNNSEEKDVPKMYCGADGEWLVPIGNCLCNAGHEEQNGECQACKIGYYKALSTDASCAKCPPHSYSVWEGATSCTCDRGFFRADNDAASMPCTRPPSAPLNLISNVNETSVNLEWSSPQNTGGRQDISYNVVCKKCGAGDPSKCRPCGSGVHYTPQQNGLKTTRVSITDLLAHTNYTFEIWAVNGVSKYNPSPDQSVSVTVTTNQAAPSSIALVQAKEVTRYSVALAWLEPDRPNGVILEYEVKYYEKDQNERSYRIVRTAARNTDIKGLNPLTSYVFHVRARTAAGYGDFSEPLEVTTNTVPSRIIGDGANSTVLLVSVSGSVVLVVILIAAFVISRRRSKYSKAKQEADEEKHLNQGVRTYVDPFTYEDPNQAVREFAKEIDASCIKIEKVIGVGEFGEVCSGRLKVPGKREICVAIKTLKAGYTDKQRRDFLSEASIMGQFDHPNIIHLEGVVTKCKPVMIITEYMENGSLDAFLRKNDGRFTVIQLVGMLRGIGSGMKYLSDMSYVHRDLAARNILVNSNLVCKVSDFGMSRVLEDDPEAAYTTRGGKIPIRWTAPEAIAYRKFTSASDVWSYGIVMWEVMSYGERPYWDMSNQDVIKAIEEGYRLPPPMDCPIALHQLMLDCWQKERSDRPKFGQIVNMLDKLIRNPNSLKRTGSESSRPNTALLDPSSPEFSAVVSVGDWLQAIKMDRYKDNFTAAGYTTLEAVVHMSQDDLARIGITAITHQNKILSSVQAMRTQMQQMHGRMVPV
# [3] = target: Mitogen-activated protein kinase 10 (Homo sapiens, UniProt P53779); test: Dose response biochemical screening assay for inhibitors of c-Jun N-Terminal Kinase 3 (JNK3). [Related pubchem assays: 746 ]
# Sequence of Mitogen-activated protein kinase 10 (P53779 whole entry): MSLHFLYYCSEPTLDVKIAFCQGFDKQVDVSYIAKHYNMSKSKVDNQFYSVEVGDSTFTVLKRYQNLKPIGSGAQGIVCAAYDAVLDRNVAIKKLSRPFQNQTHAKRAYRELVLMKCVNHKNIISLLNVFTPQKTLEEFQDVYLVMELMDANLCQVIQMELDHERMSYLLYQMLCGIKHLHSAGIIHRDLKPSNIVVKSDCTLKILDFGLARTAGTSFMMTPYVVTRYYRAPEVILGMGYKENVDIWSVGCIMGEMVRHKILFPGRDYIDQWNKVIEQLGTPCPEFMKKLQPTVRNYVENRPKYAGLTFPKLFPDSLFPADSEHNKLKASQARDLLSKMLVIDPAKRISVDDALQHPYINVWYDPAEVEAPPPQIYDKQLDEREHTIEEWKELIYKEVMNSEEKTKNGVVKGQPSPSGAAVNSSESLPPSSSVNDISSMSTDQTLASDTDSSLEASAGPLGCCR
# [4] = target: FAD-linked sulfhydryl oxidase ALR (Homo sapiens, UniProt P55789); test: ALR-catalysed DTT oxidation blockers – biochemical, H2O2 detection, luminescence, cherry-pick, dose response (AID 493248)
# Sequence of FAD-linked sulfhydryl oxidase ALR (P55789 whole entry): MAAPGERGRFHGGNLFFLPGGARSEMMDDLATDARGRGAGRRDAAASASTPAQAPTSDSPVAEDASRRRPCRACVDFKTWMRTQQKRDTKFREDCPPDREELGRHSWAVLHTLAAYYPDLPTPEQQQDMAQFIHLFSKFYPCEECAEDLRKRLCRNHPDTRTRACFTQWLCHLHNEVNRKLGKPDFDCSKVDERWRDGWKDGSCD
# [5] = rise of 2N DNA cells, HeLa – IC50, dose response (AID 1117349); format: functional, cell-based
# [6] = CellTiter-Glo luminescence survival assay, SW480 colon tumor line, concentration-response curve, half-maximal inhibitory concentration (AID 1117338); format: functional
# [7] = RKO cell viability reduction, dose response, CellTiter-Glo luminescence (AID 1117322); format: functional
# [8] = cytotoxicity toward HCT116 cells – cell-based, CellTiter-Glo luminescence, IC50, dose response (AID 1117332); format: functional; conditions: HCT-116
# [9] = SNU-C1 cell viability reduction, dose response, CellTiter-Glo luminescence (AID 1117323); format: functional, cell-based
# [10] = cytotoxicity toward Colo320 cells – cell-based, CellTiter-Glo luminescence, IC50, dose response (AID 1117334); format: functional; conditions: COLO 320
# [11] = rise of 4N DNA cells, HeLa – IC50, dose response (AID 1117351); format: functional, cell-based
# [12] = cytotoxicity toward HT-29 cells – cell-based, CellTiter-Glo luminescence, IC50, dose response (AID 1117330); format: functional
# [13] = Reduced DLD-1 viability, concentration-response, CellTiter-Glo luminescence (AID 1117352); format: functional
# [14] = HCT116 cell viability decrease, GSK3B pretreatment – CellTiter-Glo, IC50, dose response (AID 1117339); format: functional; conditions: HCT-116
# Cytochrome P450 2C19 = Cytochrome P450 2C19 (Homo sapiens, UniProt P33261); test: qHTS Assay for Inhibitors and Substrates of Cytochrome P450 2C19. [Related pubchem assays: 410 ]; format: ADME; conditions: read-out: Potency
# Sequence of Cytochrome P450 2C19 (P33261 whole entry): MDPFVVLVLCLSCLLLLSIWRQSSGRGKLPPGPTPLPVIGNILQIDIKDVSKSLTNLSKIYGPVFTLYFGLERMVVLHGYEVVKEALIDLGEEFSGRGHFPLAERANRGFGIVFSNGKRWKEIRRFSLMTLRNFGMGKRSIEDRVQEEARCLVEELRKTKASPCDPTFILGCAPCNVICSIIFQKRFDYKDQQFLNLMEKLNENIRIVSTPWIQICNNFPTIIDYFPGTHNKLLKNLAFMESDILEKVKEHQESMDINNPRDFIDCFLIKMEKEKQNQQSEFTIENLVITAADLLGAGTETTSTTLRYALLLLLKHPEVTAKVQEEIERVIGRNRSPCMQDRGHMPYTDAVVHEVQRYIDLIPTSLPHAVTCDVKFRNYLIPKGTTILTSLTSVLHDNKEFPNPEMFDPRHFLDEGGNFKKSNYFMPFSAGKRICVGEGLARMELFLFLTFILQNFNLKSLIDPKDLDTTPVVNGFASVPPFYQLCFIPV
# [15] = viability of uninfected HEp-2 cells – cell-based, HTS, cytotoxicity control for RSV inhibitor project, dose response (AID 2410); format: functional; conditions: human respiratory syncytial virus
# Aminopeptidase N = target: T1, Aminopeptidase N (Plasmodium falciparum FcB1/Columbia, UniProt O96935); test: malaria alanyl aminopeptidase activity blockers – biochemical, fluorogenic H-Leu-NHMec substrate, 1536-well (AID 1445); set-up: species or system Plasmodium falciparum 3D7, 3D7
# T1 sequence (O96935 whole entry): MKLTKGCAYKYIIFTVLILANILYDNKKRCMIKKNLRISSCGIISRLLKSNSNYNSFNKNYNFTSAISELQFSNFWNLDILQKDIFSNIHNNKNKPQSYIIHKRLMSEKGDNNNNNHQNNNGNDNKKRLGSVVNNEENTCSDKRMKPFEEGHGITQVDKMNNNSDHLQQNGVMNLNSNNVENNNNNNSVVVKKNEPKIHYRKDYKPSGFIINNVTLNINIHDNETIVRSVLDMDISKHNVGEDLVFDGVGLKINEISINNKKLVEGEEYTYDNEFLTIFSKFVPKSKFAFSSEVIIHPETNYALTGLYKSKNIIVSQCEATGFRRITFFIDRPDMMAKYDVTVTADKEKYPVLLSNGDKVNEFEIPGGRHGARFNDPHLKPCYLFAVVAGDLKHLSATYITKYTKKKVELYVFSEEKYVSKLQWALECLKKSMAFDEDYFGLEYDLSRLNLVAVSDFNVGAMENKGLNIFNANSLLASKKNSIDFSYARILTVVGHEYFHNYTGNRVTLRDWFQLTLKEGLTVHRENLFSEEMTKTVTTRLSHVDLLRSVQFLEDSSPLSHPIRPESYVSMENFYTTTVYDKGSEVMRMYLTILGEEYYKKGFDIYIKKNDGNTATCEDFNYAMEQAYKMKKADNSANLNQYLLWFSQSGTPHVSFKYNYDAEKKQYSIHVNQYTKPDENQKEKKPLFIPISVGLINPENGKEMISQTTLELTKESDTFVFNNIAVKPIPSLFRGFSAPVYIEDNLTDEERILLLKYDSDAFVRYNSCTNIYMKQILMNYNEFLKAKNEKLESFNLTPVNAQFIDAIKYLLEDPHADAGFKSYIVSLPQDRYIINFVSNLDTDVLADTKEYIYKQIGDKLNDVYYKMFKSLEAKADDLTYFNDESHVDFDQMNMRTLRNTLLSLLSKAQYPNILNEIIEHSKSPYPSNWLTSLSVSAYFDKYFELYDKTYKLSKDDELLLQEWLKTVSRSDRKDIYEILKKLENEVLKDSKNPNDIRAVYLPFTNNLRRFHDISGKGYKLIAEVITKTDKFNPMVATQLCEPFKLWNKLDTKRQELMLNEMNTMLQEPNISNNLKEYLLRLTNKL
# [16] = target: T2, Heat shock factor protein 1 (Mus musculus, UniProt P38532); test: enhancement of HSF1-driven luciferase signal – cell-based, NIH3T3, luminescence, dose retest, confirmation (AID 435004); format: functional;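 note: stress induced by proteasome inhibitor MG132 added 30 min after compound; luciferase reporter driven by HSF1 response element in NIH3T3 cells; actives raise luminescence as potentiators of the MG132 stress response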
# T2 sequence (P38532 whole entry): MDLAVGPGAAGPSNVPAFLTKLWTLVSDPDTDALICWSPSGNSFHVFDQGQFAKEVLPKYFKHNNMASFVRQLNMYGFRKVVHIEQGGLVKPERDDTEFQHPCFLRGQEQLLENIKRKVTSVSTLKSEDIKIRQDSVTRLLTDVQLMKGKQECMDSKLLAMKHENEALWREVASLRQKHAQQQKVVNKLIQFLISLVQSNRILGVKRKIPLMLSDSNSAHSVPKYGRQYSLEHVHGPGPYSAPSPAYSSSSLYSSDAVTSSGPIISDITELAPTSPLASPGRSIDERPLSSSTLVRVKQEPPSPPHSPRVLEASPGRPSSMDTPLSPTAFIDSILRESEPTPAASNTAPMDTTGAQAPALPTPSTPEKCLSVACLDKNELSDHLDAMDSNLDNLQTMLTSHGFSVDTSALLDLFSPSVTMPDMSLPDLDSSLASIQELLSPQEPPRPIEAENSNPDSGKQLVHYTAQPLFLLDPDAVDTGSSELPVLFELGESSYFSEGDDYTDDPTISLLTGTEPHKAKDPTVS
# Caspase-6 = Caspase-6 (Homo sapiens, UniProt P55212); test: inhibition of CASP6 peptide cleavage – biochemical, VEID-R110 fluorescence, cherry-pick, dose response (AID 720632)
# Sequence of Caspase-6 (P55212 24-179 limits assumed): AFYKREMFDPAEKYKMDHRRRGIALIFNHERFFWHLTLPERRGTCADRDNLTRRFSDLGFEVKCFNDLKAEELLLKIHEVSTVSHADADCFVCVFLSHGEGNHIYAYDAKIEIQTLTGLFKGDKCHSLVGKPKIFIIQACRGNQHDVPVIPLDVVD
# Sequence of Caspase-6 (P55212 194-293 limits assumed): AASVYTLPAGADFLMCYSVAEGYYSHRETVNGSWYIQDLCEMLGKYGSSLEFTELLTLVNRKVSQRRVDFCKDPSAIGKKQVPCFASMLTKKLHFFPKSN
structure (smiles),measurement,setting,value
Cc1ccc(C)c(N(CC(=O)N/N=C/c2ccc(-c3ccc([N+](=O)[O-])cc3)o2)S(=O)(=O)c2ccccc2)c1,EC50,[1],1.65 µM (active)
same,EC50,[2],> 30 µM (not active)
same,IC50,Ephrin type-A receptor 4,> 100 µM (not active)
c1ccc(Nc2ccccc2Nc2ccccn2)nc1,IC50,[3],18.4 µM (not active)
same,AC50,[4],773 nM (active)
Cc1cc(O)c2c3c4c(cc(O)c13)C(C)(C)C(=O)c1c(O)cc(O)c(c1-4)C2=O [HELIOMYCIN],IC50,[5],> 10 µM (inactive)
same,IC50,[6],58 nM (active)
same,IC50,[7],75.4 nM (active)
same,IC50,[8],77.5 nM (active)
same,IC50,[9],332 nM (active)
same,IC50,[10],82 nM (active)
same,IC50,[11],> 10 µM (inactive)
same,IC50,[12],3.01 µM (active)
same,IC50,[13],70.9 nM (active)
same,IC50,[14],57.4 nM (active)
O=c1cc(-c2ccc(O)c(O)c2)oc2cccc(O)c12,AC50,Cytochrome P450 2C19,15.8 µM (inconclusive)
CCOC(=O)COc1ccc(Br)cc1/C=C/c1nc(O)nc(O)c1[N+](=O)[O-],CC50,[15],12.7 µM (active)
same,IC50,Aminopeptidase N,25.4 µM (active)
same,EC50,[16],15.6 µM (active)
same,AC50,Caspase-6,5.09 µM (active)
